Holding throughout (type): in vivo, BALB/c nude mice
Test [1] concerns Pancreatic cancer cell BXPC-3. The experiment in a line: Tumor growth inhibition in BXPC-3 CDX model (nude mouse xenograft). Particulars: BIW × 3 weeks. The source says:
(§1) Method for testing tumor inhibitory activity of ADC in nude mouse xenograft model (cell-derived xenograft, CDX): Pancreatic cancer cell BXPC-3, lung adenocarcinoma cell NCI-H1975, triple-negative breast cancer cell MDA-MB-231, and esophageal squamous carcinoma cell KYSE-150 were subjected to monolayer culturing in vitro. When cell saturation reached 80%-90%, the cells were digested with trypsin-EDTA and centrifuged. The supernatant was discarded. The cells were re-suspended in PBS. The cell suspension was adjusted to an appropriate concentration. BXPC-3, NCI-H1975, MDA-MB-231, and KYSE-150 cells (2-10×10^6 cells/0.1 mL) were separately subcutaneously inoculated into BALB/c nude mice. The animals and the growth of transplanted tumors were observed regularly. When the tumor volume reached approximately 100-200 mm^3, the mice were randomly divided into groups based on tumor volume and body weight, with 6 animals per group. The animals were administered regularly via intravenous injection. Twice a week, the longer diameter a (mm) and shorter diameter b (mm) of the tumor were measured with a vernier caliper and the body weight of the mice was measured. The tumor volume (V) was calculated according to the following formula: V=½×a×b^2 (mm^3), in which a and b represented the length and width of the tumor, respectively. A growth curve was plotted. Finally, the tumor was excised and weighed. […]

Test [2] has as its system esophageal squamous carcinoma cell KYSE-150. The experiment in a line: Tumor growth inhibition in KYSE-150 CDX model (nude mouse xenograft). Particulars: 10 mg/kg iv, BIW × 2 weeks.
Text: as §1

Test [3] relates to triple-negative breast cancer cell MDA-MB-231. Nature of the test: Tumor growth inhibition in MDA-MB-231 CDX model (nude mouse xenograft). The settings on record: 10 mg/kg iv, BIW × 3 doses.
Text: as §1

The subject of test [4] is lung adenocarcinoma cell NCI-H1975. Nature of the test: Tumor growth inhibition in NCI-H1975 model (nude mouse xenograft). Particulars: NCI-H1975, 10 mg/kg iv, BIW × 2 weeks.
Text: as §1

SMILES strings stand for the structures.

On to `Nc1ccn([C@@H]2O[C@H](CO)[C@@H](O)C2(F)F)c(=O)n1` [Gemcitabine], for which the “Tumor inhibition on D33” value in test [1] (90 mg/kg iv) was 41.52%.

Take `CC(=O)O[C@H]1C(=O)[C@@]2(C)[C@H]([C@H](OC(=O)c3ccccc3)[C@]3(O)C[C@H](OC(=O)[C@H](O)[C@@H](NC(=O)c4ccccc4)c4ccccc4)C(C)=C1C3(C)C)[C@]1(OC(C)=O)CO[C@@H]1C[C@@H]2O` [Paclitaxel]: the figures for the “Tumor inhibition on D21” value in test [2] and in test [4] were 78.00% and 94.5%, respectively. Further, the “Tumor inhibition on D25” value in test [3] came to 79.96%.

Take `CC[C@@]1(O)C(=O)OCc2c1cc1n(c2=O)Cc2c-1nc1cc(F)c(C)c3c1c2[C@@H](NC(=O)CONC)CC3` [Compound 10]: in test [1] (0.12 mg/kg iv), the “Tumor inhibition on D33” value was determined as 16.75%.

For the origin of these results see patent publication US20260158158A1, “ANTIBODY-DRUG CONJUGATE, PREPARATION METHOD THEREFOR AND USE THEREOF” (HANGZHOU ADCORIS BIOPHARMA CO., LTD, priority 2023, published 2026).
